PubChem BioAssay (NCI)
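Grown in 96-well plates, cells were treated for 48 hours with each compound at five concentrations. Insufficient inhibition: endpoint recorded as highest concentration tested. At the GI50, growth is halved. TGI: total growth inhibition.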

Tests used:
Assay in all cases: NCI tumour cell line growth inhibition, 48 h
[1] = system: 786-0 renal
[2] = system: A498 renal
[3] = system: A549 NSCLC
[4] = system: ACHN renal
[5] = system: BT-549 breast
[6] = system: CAKI-1 renal
[7] = system: CCRF-CEM leukemia
[8] = system: COLO 205 colon
[9] = system: DU-145 prostate
[10] = system: EKVX NSCLC
[11] = system: HCC-2998 colon
[12] = system: HCT-116 colon
[13] = system: HCT-15 colon
[14] = system: HL-60(TB) leukemia
[15] = system: HOP-62 NSCLC
[16] = system: HOP-92 NSCLC
[17] = system: HS 578T breast
[18] = system: HT29 colon
[19] = system: IGROV1 ovarian
[20] = system: K-562 leukemia
[21] = system: KM12 colon
[22] = system: LOX IMVI melanoma
[23] = system: M14 melanoma
[24] = system: MALME-3M melanoma
[25] = system: MCF7 breast
[26] = system: MDA-MB-231 breast
[27] = system: MDA-MB-435
[28] = system: MDA-N
[29] = system: MOLT-4 leukemia
[30] = system: NCI-H226 lung
[31] = system: NCI-H23 lung
[32] = system: NCI-H460 lung
[33] = system: NCI-H522 lung
[34] = system: NCI/ADR-RES ovarian
[35] = system: OVCAR-3 ovarian
[36] = system: OVCAR-4 ovarian
[37] = system: OVCAR-5 ovarian
[38] = system: OVCAR-8 ovarian
[39] = system: PC-3 prostate
[40] = system: RPMI-8226 leukemia
[41] = system: RXF 393 renal
[42] = system: SF-268 CNS
[43] = system: SF-295 CNS
[44] = system: SF-539 CNS
[45] = system: SK-MEL-2 melanoma
[46] = system: SK-MEL-28 melanoma
[47] = system: SK-MEL-5 melanoma
[48] = system: SK-OV-3 ovarian
[49] = system: SN12C renal
[50] = system: SNB-19 CNS
[51] = system: SNB-75 CNS
[52] = system: SW-620 colon
[53] = system: T-47D breast
[54] = system: TK-10 renal
[55] = system: U251 CNS
[56] = system: UACC-257 melanoma
[57] = system: UACC-62 melanoma
[58] = system: UO-31 renal
[59] = system: SR leukemia

OC1CCCC2CCC[N-]C12.OC1CCCC2CCC[N-]C12.[O]=[V][OH] (stereo unspecified)
GI50 [1]: 7.08 µM
TGI [1]: 24.8 µM
GI50 [2]: 11.6 µM
TGI [2]: 97.5 µM
GI50 [3]: 5.23 µM
TGI [3]: > 100 µM
GI50 [4]: 8.21 µM
TGI [4]: > 100 µM
GI50 [5]: 6.3 µM
TGI [5]: 52.8 µM
GI50 [6]: 21.9 µM
TGI [6]: 85.3 µM
GI50 [7]: 0.493 µM
TGI [7]: 12.2 µM
GI50 [8]: 21.1 µM
TGI [8]: 81.8 µM
GI50 [9]: 19.7 µM
TGI [9]: > 100 µM
GI50 [10]: 3.62 µM
TGI [10]: 22.8 µM
GI50 [11]: 12.7 µM
TGI [11]: > 100 µM
GI50 [12]: 2.66 µM
TGI [12]: 11.5 µM
GI50 [13]: 0.789 µM
TGI [13]: 12.5 µM
GI50 [14]: 2.61 µM
TGI [14]: 8.4 µM
GI50 [15]: 7.15 µM
TGI [15]: > 100 µM
GI50 [16]: 22.9 µM
TGI [16]: > 100 µM
GI50 [17]: 21.2 µM
TGI [17]: > 100 µM
GI50 [18]: 4.72 µM
TGI [18]: > 100 µM
GI50 [19]: 2.37 µM
TGI [19]: 12.2 µM
GI50 [20]: 1.93 µM
TGI [20]: 14.4 µM
GI50 [21]: 7.24 µM
TGI [21]: > 100 µM
GI50 [22]: 6.09 µM
TGI [22]: 33.6 µM
GI50 [23]: 2.92 µM
TGI [23]: 14.9 µM
GI50 [24]: 5.03 µM
TGI [24]: > 100 µM
GI50 [25]: 2.87 µM
TGI [25]: 10.1 µM
GI50 [26]: 3.55 µM
TGI [26]: 16.5 µM
GI50 [27]: 7.44 µM
TGI [27]: > 100 µM
GI50 [28]: 5.86 µM
TGI [28]: > 100 µM
GI50 [29]: 1.23 µM
TGI [29]: 10.6 µM
GI50 [30]: 42 µM
TGI [30]: > 100 µM
GI50 [31]: 7.22 µM
TGI [31]: 52.6 µM
GI50 [32]: 5.49 µM
TGI [32]: > 100 µM
GI50 [33]: 0.743 µM
TGI [33]: 25.7 µM
GI50 [34]: 2.82 µM
TGI [34]: 15.1 µM
GI50 [35]: 0.359 µM
TGI [35]: 2.27 µM
GI50 [36]: 3.05 µM
TGI [36]: > 100 µM
GI50 [37]: 9.99 µM
TGI [37]: > 100 µM
GI50 [38]: 2.98 µM
TGI [38]: > 100 µM
GI50 [39]: 2.59 µM
TGI [39]: 8.63 µM
GI50 [40]: 2.54 µM
TGI [40]: 25.8 µM
GI50 [41]: 15.6 µM
TGI [41]: 35.4 µM
GI50 [42]: 4.04 µM
TGI [42]: > 100 µM
GI50 [43]: 9.84 µM
TGI [43]: 76.9 µM
GI50 [44]: 15.8 µM
TGI [44]: > 100 µM
GI50 [45]: 9.96 µM
TGI [45]: 45 µM
GI50 [46]: 21.2 µM
TGI [46]: > 100 µM
GI50 [47]: 5.57 µM
TGI [47]: 46.2 µM
GI50 [48]: 6.25 µM
TGI [48]: 55.9 µM
GI50 [49]: 5.91 µM
TGI [49]: > 100 µM
GI50 [50]: 53.1 µM
TGI [50]: > 100 µM
GI50 [51]: 32.8 µM
TGI [51]: > 100 µM
GI50 [52]: 3.5 µM
TGI [52]: 37.5 µM
GI50 [53]: 0.825 µM
TGI [53]: 26.6 µM
GI50 [54]: 44.9 µM
TGI [54]: > 100 µM
GI50 [55]: 1.87 µM
TGI [55]: 5.72 µM
GI50 [56]: 4.05 µM
TGI [56]: > 100 µM
GI50 [57]: 3.98 µM
TGI [57]: 24.7 µM
GI50 [58]: 2.13 µM
TGI [58]: 9.29 µM

CCOC(=O)c1c(N2CCCC2)[nH]c(=O)c(C(c2ccc(Cl)c([N+](=O)[O-])c2)c2c(O)c(C(=O)OCC)c(N3CCCC3)[nH]c2=O)c1O
TGI [1]: > 100 µM
TGI [2]: > 100 µM
TGI [3]: > 100 µM
TGI [4]: > 100 µM
TGI [5]: 51.8 µM
TGI [6]: 60.6 µM
TGI [7]: 79.3 µM
TGI [8]: > 100 µM
TGI [9]: > 100 µM
TGI [10]: > 100 µM
TGI [11]: > 100 µM
TGI [12]: > 100 µM
TGI [13]: > 100 µM
TGI [15]: > 100 µM
TGI [16]: 58.3 µM
TGI [17]: > 100 µM
TGI [20]: > 100 µM
TGI [21]: > 100 µM
TGI [22]: 49.4 µM
TGI [23]: 42.7 µM
TGI [24]: 84.6 µM
TGI [25]: > 100 µM
TGI [26]: 50.5 µM
TGI [27]: > 100 µM
TGI [28]: 79.6 µM
TGI [29]: > 100 µM
TGI [30]: > 100 µM
TGI [31]: 48.9 µM
TGI [32]: > 100 µM
TGI [33]: 74.1 µM
TGI [34]: 73.4 µM
TGI [35]: > 100 µM
TGI [36]: > 100 µM
TGI [37]: > 100 µM
TGI [38]: 33.5 µM
TGI [39]: 83.9 µM
TGI [40]: > 100 µM
TGI [41]: 99.6 µM
TGI [42]: 55.2 µM
TGI [43]: > 100 µM
TGI [44]: 41.6 µM
TGI [46]: > 100 µM
TGI [47]: > 100 µM
TGI [48]: > 100 µM
TGI [49]: > 100 µM
TGI [50]: 49.9 µM
TGI [51]: 34.4 µM
TGI [59]: > 100 µM
TGI [52]: > 100 µM
TGI [53]: > 100 µM
TGI [54]: 59.2 µM
TGI [55]: 36.9 µM
TGI [56]: > 100 µM
TGI [57]: 86 µM
TGI [58]: 66.6 µM

NC(Cc1c[nH]c2ccc([N+](=O)[O-])cc12)C(=O)O (stereo unspecified)
TGI [1]: > 100 µM
TGI [2]: > 100 µM
TGI [3]: > 100 µM
TGI [4]: > 100 µM
TGI [5]: > 100 µM
TGI [6]: > 100 µM
TGI [7]: > 100 µM
TGI [8]: > 100 µM
TGI [9]: > 100 µM
TGI [10]: > 100 µM
TGI [12]: > 100 µM
TGI [13]: > 100 µM
TGI [14]: > 100 µM
TGI [15]: > 100 µM
TGI [17]: > 100 µM
TGI [18]: > 100 µM
TGI [19]: > 100 µM
TGI [20]: > 100 µM
TGI [21]: > 100 µM
TGI [22]: > 100 µM
TGI [23]: > 100 µM
TGI [24]: > 100 µM
TGI [25]: > 100 µM
TGI [26]: > 100 µM
TGI [27]: > 100 µM
TGI [28]: > 100 µM
TGI [29]: > 100 µM
TGI [30]: > 100 µM
TGI [31]: > 100 µM
TGI [33]: > 100 µM
TGI [34]: > 100 µM
TGI [35]: > 100 µM
TGI [36]: > 100 µM
TGI [37]: > 100 µM
TGI [38]: > 100 µM
TGI [39]: > 100 µM
TGI [40]: > 100 µM
TGI [41]: > 100 µM
TGI [42]: > 100 µM
TGI [43]: > 100 µM
TGI [45]: > 100 µM
TGI [46]: > 100 µM
TGI [47]: > 100 µM
TGI [48]: > 100 µM
TGI [49]: > 100 µM
TGI [50]: > 100 µM
TGI [51]: > 100 µM
TGI [59]: > 100 µM
TGI [52]: > 100 µM
TGI [53]: > 100 µM
TGI [54]: > 100 µM
TGI [55]: > 100 µM
TGI [56]: > 100 µM
TGI [57]: > 100 µM
TGI [58]: > 100 µM
